Test: Pharmacokinetics of etonogestrel esters in the rabbit after one i.m. injection; plasma etonogestrel by LC-MSMS
Type: in vivo
Procedure: For the determination of the pharmacokinetic profile of the different etonogestrel-esters after parenteral application, i.m. application in the castrated rabbit model was chosen instead of s.c. Briefly, rabbits were injected once (day 1) with indicated etonogestrel-esters at 20 mg/kg in arachis oil (with a concentration of 40 mg/ml). At day 1, 2, 3, 4, 5, 6, 7, 8, 10, 12, 14, 21, 28, 35, 49, 63, 77, 92, 106, 120 and 133 blood was collected from the ear arteria, in EDTA-containing tubes. EDTA plasma was prepared (1500 g, 15 min) and stored at −20° C. With LC-MSMS the amount of parent compound (etonogestrel) was determined in these samples. The lower limit of this new assay is 0.5 nmol/l, from 0-250 nmol/l a linear curve was obtained with a correlation coefficient of 0,9998.

[1] = one i.m. injection, 20 mg/kg in arachis oil
[2] = one i.m. injection, 20 mg/kg in arachis oil, parent etonogestrel measured

| SMILES | initial peak level of etonogestrel in plasma [2] [nmol/L] | time of initial peak level of etonogestrel [1] | also measured |
| --- | --- | --- | --- |
| C#C[C@]1(OC(=O)CCCCCCCC)CC[C@H]2[C@@H]3CCC4=CC(=O)CC[C@@H]4[C@H]3C(=C)C[C@@]21CC [Etonogestrel nonanoate] | – | – | duration with serum levels of etonogestrel above 1 nmol/l (in words) [1]: extended duration; initial peak levels of etonogestrel (in words) [1]: lower peak levels |
| C#C[C@]1(OC(=O)CCCCCC)CC[C@H]2[C@@H]3CCC4=CC(=O)CC[C@@H]4[C@H]3C(=C)C[C@@]21CC [Etonogestrel-heptanoate] | 120 | – | – |
| C#CC1(OC(=O)CCCCCCCCC)CCC2C3CCC4=CC(=O)CCC4C3C(=C)CC21CC (stereo not shown) [etonogestrel decanoate] | 24 | 5 days | – |
| C#C[C@]1(OC(=O)CCCCCCCCCCC)CC[C@H]2[C@@H]3CCC4=CC(=O)CC[C@@H]4[C@H]3C(=C)C[C@@]21CC [etonogestrel dodecanoate] | 9 | 8 days | – |
| C#C[C@]1(OC(=O)CCCCCCCCCCCC)CC[C@H]2[C@@H]3CCC4=CC(=O)CC[C@@H]4[C@H]3C(=C)C[C@@]21CC [etonogestrel tridecanoate] | – | – | initial peak levels of etonogestrel (in words) [1]: no initial levels of etonogestrel were observed |
| C#C[C@]1(OC(=O)CCCCCCCCCC)CC[C@H]2[C@@H]3CCC4=CC(=O)CC[C@@H]4[C@H]3C(=C)C[C@@]21CC [etonogestrel undecanoate] | 13 | eight | duration of action (etonogestrel level above 1 nmol/l) [1]: more than 92 days |
| C#C[C@]1(O)CC[C@H]2[C@@H]3CCC4=CC(=O)CC[C@@H]4[C@H]3C(=C)C[C@@]21CC [etonogestrel, (17α)-13-ethyl-17-hydroxy-11-methylene-18,19-dinorpregn-4-en-20-yn-3-one] | – | – | initial peak level of etonogestrel in plasma (in vivo, 20 mg/kg): 200 nmol/L; time in which etonogestrel levels declined to below 1 nmol/l (in vivo, 20 mg/kg): 28 days |
